# Experimental data as given in patent publication US10294202B2, “Pyrrolidinones as herbicides” (FMC Corporation, priority 2013, dated 2019).
# How the values were obtained:
# [1] = system: ryegrass, Italian; assay: Test A pre-/postemergence herbicide test; type: in vivo, Lolium multiflorum
# Procedure, shortened: (§1)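 Greenhouse pot test with pre- and postemergence application of surfactant-containing solvent formulations. Postemergence plants were 2–10 cm, one- to two-leaf stage. Response scored visually after ~10 days, 0 (no effect) to 100 (complete control).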
# [2] = system: blackgrass; assay: Test A postemergence herbicide test; type: in vivo, Alopecurus myosuroides
# Procedure, shortened: (§2)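 Young potted plants in a loam–sand mix, one- to two-leaf stage and 2–10 cm tall, receive the test chemical postemergence and stay in a greenhouse for approximately 10 days. Injury is then judged by eye against untreated plants, scored 0 (none) to 100 (complete control).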
# [3] = system: barnyardgrass; assay: Test B flooded paddy test; type: in vivo, Echinochloa crus-galli; conditions: Flood, scale of 0 to 100 where 0 is no effect and 100 is complete control
# Procedure, shortened: (§3)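 In-water application to pots flooded 3 cm deep, plants at 2-leaf stage. Held in greenhouse 13–15 days at constant flood depth. Scored 0–100 by eye against controls.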
# [4] = system: sedge, umbrella; assay: Test B flooded paddy test; type: in vivo, Cyperus difformis; conditions: Flood, scale of 0 to 100 where 0 is no effect and 100 is complete control
# Procedure, shortened: as §3
# [5] = system: kochia; assay: Test A pre-/postemergence herbicide test; type: in vivo, Kochia scoparia
# Procedure, shortened: as §1
# [6] = system: ducksalad; assay: Test B flooded paddy test; type: in vivo, Heteranthera limosa; conditions: Flood, scale of 0 to 100 where 0 is no effect and 100 is complete control
# Procedure, shortened: as §3
# [7] = system: giant foxtail; assay: Test A pre-/postemergence herbicide test; type: in vivo, Setaria faberii
# Procedure, shortened: as §1
# [8] = system: ragweed; assay: Test A pre-/postemergence herbicide test; type: in vivo, Ambrosia elatior
# Procedure, shortened: as §1
# [9] = system: wheat; assay: Test A pre-/postemergence herbicide test; type: in vivo, Triticum aestivum; conditions: Postemergence
# Procedure, shortened: as §1
# [10] = system: barnyardgrass; assay: Test A pre-/postemergence herbicide test; type: in vivo, Echinochloa crus-galli
# Procedure, shortened: as §1
# [11] = system: pigweed; assay: Test A pre-/postemergence herbicide test; type: in vivo, Amaranthus retroflexus
# Procedure, shortened: as §1
# [12] = system: rice; assay: Test B flooded paddy test; type: in vivo, Oryza sativa; conditions: Flood, scale of 0 to 100 where 0 is no effect and 100 is complete control
# Procedure, shortened: as §3
# [13] = system: galium; assay: Test A postemergence herbicide test; type: in vivo, Galium aparine
# Procedure, shortened: as §2
# [14] = system: corn; assay: Test A pre-/postemergence herbicide test; type: in vivo, Zea mays; conditions: Postemergence
# Procedure, shortened: as §1
# [15] = 125 g ai/ha, visual rating, 0 to 100 scale, 0 no effect, 100 complete control, approximately 10 days, preemergence
# [16] = Postemergence, 125 g ai/ha, 0 to 100 scale, 0 is no effect, 100 is complete control
# [17] = preemergence, 500 g ai/ha, 0 to 100 scale, 0 is no effect and 100 is complete control
# [18] = 125 g ai/ha, 0 to 100 scale, 0 is no effect, 100 is complete control
# [19] = Postemergence, 125 g ai/ha, visual rating on 0 to 100 scale (0 no effect, 100 complete control), approx. 10 days
# [20] = Postemergence, 500 g ai/ha, 0 to 100 scale (0 no effect, 100 complete control)
# [21] = Preemergence, 125 g ai/ha, 0 to 100 scale where 0 is no effect and 100 is complete control
# [22] = 500 g ai/ha, 0 to 100 scale (0 no effect, 100 complete control)
# [23] = 125 g ai/ha, visual rating on 0 to 100 scale (0 no effect, 100 complete control), approx. 10 days
structure (smiles),measurement,setting,value
O=C1NCC(c2cccc(S(F)(F)(F)(F)F)c2)C1C(=O)Nc1ccccc1F (racemic) [Compound 213],"Plant response rating, Ryegrass, Italian",[1]; [15],0
same,"Plant response rating, Ryegrass, Italian",[1]; [16],40
same,"Ryegrass, Italian plant response rating (0 to 100 scale, 0 is no effect, 100 is complete control)","[1]; Postemergence, 500 g ai/ha",50
same,"Plant response rating, Ryegrass, Italian",[1]; [17],40
same,"Plant response rating, Blackgrass",[2]; [18],50
same,"Blackgrass plant response rating (0 to 100 scale, 0 is no effect, 100 is complete control)",[2]; 500 g ai/ha,60
same,"Plant response rating, Barnyardgrass",[3]; 1000 g ai/ha,60
same,"Plant response rating, Sedge, Umbrella",[4]; 1000 g ai/ha,0
same,"Plant response rating, Kochia",[5]; [15],0
same,"Plant response rating, Kochia",[5]; [16],0
same,"Kochia plant response rating (0 to 100 scale, 0 is no effect, 100 is complete control)","[5]; Postemergence, 500 g ai/ha",0
same,"Plant response rating, Kochia",[5]; [17],0
same,"Plant response rating, Ducksalad",[6]; 1000 g ai/ha,85
same,"Plant response rating, Foxtail, Giant",[7]; [15],80
same,"Plant response rating, Foxtail, Giant",[7]; [16],80
same,"Foxtail, Giant plant response rating (0 to 100 scale, 0 is no effect, 100 is complete control)","[7]; Postemergence, 500 g ai/ha",90
same,"Plant response rating, Foxtail, Giant",[7]; [17],90
same,"Plant response rating, Ragweed",[8]; [15],0
same,"Plant response rating, Ragweed",[8]; [16],0
same,"Ragweed plant response rating (0 to 100 scale, 0 is no effect, 100 is complete control)","[8]; Postemergence, 500 g ai/ha",30
same,"Plant response rating, Ragweed",[8]; [17],0
same,"Plant response rating, Wheat",[9]; [18],0
same,"Wheat plant response rating (0 to 100 scale, 0 is no effect, 100 is complete control)",[9]; 500 g ai/ha,50
same,"Plant response rating, Barnyardgrass",[10]; [15],50
same,"Plant response rating, Barnyardgrass",[10]; [16],60
same,"Barnyardgrass plant response rating (0 to 100 scale, 0 is no effect, 100 is complete control)","[10]; Postemergence, 500 g ai/ha",70
same,"Plant response rating, Barnyardgrass",[10]; [17],80
same,"Plant response rating, Pigweed",[11]; [15],0
same,"Plant response rating, Pigweed",[11]; [16],0
same,"Pigweed plant response rating (0 to 100 scale, 0 is no effect, 100 is complete control)","[11]; Postemergence, 500 g ai/ha",0
same,"Plant response rating, Pigweed",[11]; [17],0
same,"Plant response rating, Rice",[12]; 1000 g ai/ha,0
same,"Plant response rating, Galium",[13]; [18],0
same,"Galium plant response rating (0 to 100 scale, 0 is no effect, 100 is complete control)",[13]; 500 g ai/ha,0
same,"Plant response rating, Corn",[14]; [18],0
same,"Corn plant response rating (0 to 100 scale, 0 is no effect, 100 is complete control)",[14]; 500 g ai/ha,50
O=C1NCC(c2ccc(Cl)c(Cl)c2)C1C(=O)Nc1ccc(F)cc1F (racemic) [Compound 272],"Plant response rating, Ryegrass, Italian",[1]; [19],0
same,"Plant response rating, Ryegrass, Italian",[1]; [20],0
same,"Plant response rating, Ryegrass, Italian",[1]; [21],0
same,"Plant response rating, Ryegrass, Italian",[1]; [17],0
same,"Plant response rating, Blackgrass",[2]; [18],0
same,"Plant response rating, Blackgrass",[2]; [22],30
same,"Plant response rating, Barnyardgrass",[3]; 500 g ai/ha,20
same,"Plant response rating, Sedge, Umbrella",[4]; 500 g ai/ha,0
same,"Plant response rating, Kochia",[5]; [16],20
same,"Plant response rating, Kochia",[5]; [20],60
same,"Plant response rating, Kochia",[5]; [21],0
same,"Plant response rating, Kochia",[5]; [17],20
same,"Plant response rating, Ducksalad",[6]; 500 g ai/ha,100
same,"Plant response rating, Foxtail, Giant",[7]; [16],60
same,"Plant response rating, Foxtail, Giant",[7]; [20],80
same,"Plant response rating, Foxtail, Giant",[7]; [21],90
same,"Plant response rating, Foxtail, Giant",[7]; [17],90
same,"Plant response rating, Ragweed",[8]; [19],40
same,"Plant response rating, Ragweed",[8]; [20],0
same,"Plant response rating, Ragweed",[8]; [21],0
same,"Plant response rating, Ragweed",[8]; [17],0
same,"Plant response rating, Wheat",[9]; [23],0
same,"Plant response rating, Wheat",[9]; [22],0
same,"Plant response rating, Barnyardgrass",[10]; [16],50
same,"Plant response rating, Barnyardgrass",[10]; [20],80
same,"Plant response rating, Barnyardgrass",[10]; [21],70
same,"Plant response rating, Barnyardgrass",[10]; [17],90
same,"Plant response rating, Pigweed",[11]; [19],0
same,"Plant response rating, Pigweed",[11]; [20],20
same,"Plant response rating, Pigweed",[11]; [21],0
same,"Plant response rating, Pigweed",[11]; [17],30
same,"Plant response rating, Rice",[12]; 500 g ai/ha,0
same,"Plant response rating, Galium",[13]; [18],30
same,"Plant response rating, Galium",[13]; [22],50
same,"Plant response rating, Corn",[14]; [18],0
same,"Plant response rating, Corn",[14]; [22],10
O=C1NCC(c2ccc(Cl)c(Cl)c2)C1C(=O)Nc1ccccc1Cl (racemic) [Compound 273],"Plant response rating, Ryegrass, Italian",[1]; [19],0
same,"Plant response rating, Ryegrass, Italian",[1]; [20],0
same,"Plant response rating, Ryegrass, Italian",[1]; [21],0
same,"Plant response rating, Ryegrass, Italian",[1]; [17],0
same,"Plant response rating, Blackgrass",[2]; [18],0
same,"Plant response rating, Blackgrass",[2]; [22],0
same,"Plant response rating, Barnyardgrass",[3]; 500 g ai/ha,0
same,"Plant response rating, Sedge, Umbrella",[4]; 500 g ai/ha,0
same,"Plant response rating, Kochia",[5]; [16],0
same,"Plant response rating, Kochia",[5]; [20],0
same,"Plant response rating, Kochia",[5]; [21],0
same,"Plant response rating, Kochia",[5]; [17],70
same,"Plant response rating, Ducksalad",[6]; 500 g ai/ha,70
same,"Plant response rating, Foxtail, Giant",[7]; [16],20
same,"Plant response rating, Foxtail, Giant",[7]; [20],70
same,"Plant response rating, Foxtail, Giant",[7]; [21],90
same,"Plant response rating, Foxtail, Giant",[7]; [17],90
same,"Plant response rating, Ragweed",[8]; [19],0
same,"Plant response rating, Ragweed",[8]; [20],0
same,"Plant response rating, Ragweed",[8]; [21],0
same,"Plant response rating, Ragweed",[8]; [17],0
same,"Plant response rating, Wheat",[9]; [23],0
same,"Plant response rating, Wheat",[9]; [22],0
same,"Plant response rating, Barnyardgrass",[10]; [16],10
same,"Plant response rating, Barnyardgrass",[10]; [20],30
same,"Plant response rating, Barnyardgrass",[10]; [21],50
same,"Plant response rating, Barnyardgrass",[10]; [17],80
same,"Plant response rating, Pigweed",[11]; [19],0
same,"Plant response rating, Pigweed",[11]; [20],0
same,"Plant response rating, Pigweed",[11]; [21],0
same,"Plant response rating, Pigweed",[11]; [17],0
same,"Plant response rating, Rice",[12]; 500 g ai/ha,0
same,"Plant response rating, Galium",[13]; [18],0
same,"Plant response rating, Galium",[13]; [22],50
same,"Plant response rating, Corn",[14]; [18],0
same,"Plant response rating, Corn",[14]; [22],0
